Laboratory results taken from patent publication US6358885B1, “Substituted phenylheterocyclic herbicides” (Mississippi State University, priority 1992, dated 2002).

Columns and labels:
blackgrass = assay: Test B preemergence/postemergence greenhouse plant response rating 0 to 10; type: in vivo, Alopecurus myosuroides; settings: for Plant response rating, Blackgrass: 0 to 10 scale
Method in brief: (§1)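 Test chemicals were sprayed onto freshly planted seed and, concurrently, onto young plants between the one and four leaf stage. After a twelve- to sixteen-day greenhouse period, each species was visually compared with untreated controls.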

morningglory = assay: as above; type: in vivo, Ipomoea hederacea; settings: 0 to 10 scale
Method in brief: as §1

wild oat = assay: as above; type: in vivo, Avena fatua; settings: 0 to 10 scale
Method in brief: as §1

sugar beet = assay: as above; type: in vivo, Beta vulgaris; settings: 0 to 10 scale
Method in brief: as §1

cocklebur = assay: as above; type: in vivo, Xanthium pensylvanicum; settings: for Plant response rating, Cocklebur: 0 to 10 scale
Method in brief: as §1

sandbur = assay: Test G preemergence/postemergence greenhouse plant response rating 0 to 100; type: in vivo, Cenchrus echinatus; settings: 0 to 100 scale
Text: Seeds, rhizomes, or plant parts of alfalfa (Medicago ativa), annual bluegrass (Poa annua), bermudagrass (Cynodon dactylon), broadleaf signalgrass (Brachiaria plantaginea), common purslane (Portulaca oleracea), common ragweed (Ambrosia elatior), […] (Paspalum dilatatum), goosegrass (Eleusine indica), guineagrass (Panicum maximum), […] exaltata), johnsongrass (Sorghum halepense), large crabgrass (Digitaria sanguinalis), peanut (Arachis hypoagaea), pitted morningglory (Ipomoea lacunosa), purple nutsedge (Cyperus rotundus), sandbur (Cenchrus echinatus), smooth crabgrass (Digitaria ischaemum) and yellow nutsedge (Cyperus esculentus) were planted into greenhouse pots containing greenhouse planting medium. Each pot contained only one plant species. The test compound was dissolved in a non-phytotoxic solvent and applied preemergence and/or postemergence to the plants. Preemergence applications were made within one day of planting the seeds or plant parts. Postemergence applications were applied when the plants were in the two to four leaf stage (three to twenty cm). Test chemicals were dissolved in a non-phytotoxic solvent and applied preemergence and postemergence to the plants. Untreated control plants and treated plants were placed in the greenhouse and visually evaluated for injury at 13 to 21 days after herbicide application. […] A dash (-) response indicates no test result.

bedstraw = assay: Test B preemergence/postemergence greenhouse plant response rating 0 to 10; type: in vivo, Galium aparine; settings: for Plant response rating, Bedstraw: 0 to 10 scale
Method in brief: as §1

Row | Structure (SMILES) | Plant response rating (0 to 10 scale), Blackgrass (blackgrass; POSTEMERGENCE, Rate 50 g/ha) | Plant response rating, Blackgrass (blackgrass; POSTEMERGENCE, Rate 200 g/ha) | Plant response rating, Blackgrass (blackgrass; PREEMERGENCE, Rate 50 g/ha) | Plant response rating, Blackgrass (blackgrass; Rate 200 g/ha, PREEMERGENCE) | Plant response rating, Morningglory (morningglory; POSTEMERGENCE, Rate 50 g/ha) | Plant response rating, Morningglory (morningglory; POSTEMERGENCE, Rate 200 g/ha) | Plant response rating, Morningglory (morningglory; PREEMERGENCE, Rate 50 g/ha) | Plant response rating, Morningglory (morningglory; Rate 200 g/ha, PREEMERGENCE) | Plant response rating, Wild oat (wild oat; POSTEMERGENCE, Rate 50 g/ha) | Plant response rating, Wild oat (wild oat; POSTEMERGENCE, Rate 200 g/ha) | Plant response rating, Wild oat (wild oat; Rate 200 g/ha, PREEMERGENCE) | Plant response rating, Sugar beet (sugar beet; POSTEMERGENCE, Rate 50 g/ha) | Plant response rating, Sugar beet (sugar beet; POSTEMERGENCE, Rate 200 g/ha) | Plant response rating, Sugar beet (sugar beet; PREEMERGENCE, Rate 50 g/ha) | Plant response rating, Sugar beet (sugar beet; Rate 200 g/ha, PREEMERGENCE) | Plant response rating (0 to 10 scale), Cocklebur (cocklebur; POSTEMERGENCE, Rate 50 g/ha) | Plant response rating, Cocklebur (cocklebur; POSTEMERGENCE, Rate 200 g/ha) | Plant response rating, Cocklebur (cocklebur; PREEMERGENCE, Rate 50 g/ha) | Plant response rating, Cocklebur (cocklebur; Rate 200 g/ha, PREEMERGENCE) | Plant response rating, S. Sandbur (sandbur; POSTEMERGENCE, Rate 125 g/ha) | other results
1 | CCCOc1cc(-c2nn3c(c2Cl)CCCC3)c(F)cc1Cl [Compound 23] | 6 | 6 | 6 | 7 | 8 | 10 | 3 | 8 | 3 | 5 | 6 | 10 | 10 | 9 | 10 | 8 | 10 | 0 | 8 | 0 | Plant response rating, S. Sandbur (sandbur; POSTEMERGENCE, Rate 250 g/ha): 0; Plant response rating, S. Sandbur (sandbur; PREEMERGENCE, Rate 125 g/ha): 0; Plant response rating, S. Sandbur (sandbur; PREEMERGENCE, Rate 250 g/ha): 0; Plant response rating (0 to 10 scale), Bedstraw (bedstraw; POSTEMERGENCE, Rate 50 g/ha): 7; Plant response rating, Bedstraw (bedstraw; POSTEMERGENCE, Rate 200 g/ha): 9; Plant response rating, Bedstraw (bedstraw; PREEMERGENCE, Rate 50 g/ha): 5; Plant response rating, Bedstraw (bedstraw; Rate 200 g/ha, PREEMERGENCE): 5
2 | Fc1cc(Cl)c(OC2CCCC2)cc1-c1nn2c(c1Cl)CCCC2 [Compound 24] | 2 | 6 | 2 | 8 | 9 | 8 | 1 | 5 | 3 | 4 | 2 | 10 | 10 | 9 | 9 | 8 | 9 | 0 | 1 | 0 | Plant response rating, S. Sandbur (sandbur; POSTEMERGENCE, Rate 250 g/ha): 0; Plant response rating, S. Sandbur (sandbur; PREEMERGENCE, Rate 125 g/ha): 40; Plant response rating, S. Sandbur (sandbur; PREEMERGENCE, Rate 250 g/ha): 0; Plant response rating (0 to 10 scale), Bedstraw (bedstraw; POSTEMERGENCE, Rate 50 g/ha): 6; Plant response rating, Bedstraw (bedstraw; POSTEMERGENCE, Rate 200 g/ha): 7; Plant response rating, Bedstraw (bedstraw; PREEMERGENCE, Rate 50 g/ha): 3; Plant response rating, Bedstraw (bedstraw; Rate 200 g/ha, PREEMERGENCE): 5
3 | CCS(=O)(=O)Oc1cc(-c2nn3c(c2Cl)CCCC3)c(F)cc1Cl [Compound 25] | 2 | 2 | 0 | 3 | 8 | 10 | 1 | 5 | 3 | 4 | 4 | 10 | 10 | 7 | 10 | 7 | 8 | 0 | 1 | 0 | Plant response rating, S. Sandbur (sandbur; POSTEMERGENCE, Rate 250 g/ha): 0; Plant response rating, S. Sandbur (sandbur; PREEMERGENCE, Rate 125 g/ha): 0; Plant response rating, S. Sandbur (sandbur; PREEMERGENCE, Rate 250 g/ha): 0; Plant response rating (0 to 10 scale), Bedstraw (bedstraw; POSTEMERGENCE, Rate 50 g/ha): 9; Plant response rating, Bedstraw (bedstraw; POSTEMERGENCE, Rate 200 g/ha): 9; Plant response rating, Bedstraw (bedstraw; PREEMERGENCE, Rate 50 g/ha): 5; Plant response rating, Bedstraw (bedstraw; Rate 200 g/ha, PREEMERGENCE): 10
